Source: patent US5290926A, “Isolated DNA Encoding plant histidinol dehydrogenase” (Ciba-Geigy Corporation, priority 1990, dated 1994)
Read-outs that look alike come from different tables or passages of the source.

T1: histidinol dehydrogenase from cabbage (Brassica oleracea var. capitata, UniProt P24226)
T1 construct: Spring cabbage heads are homogenized using a kitchen mixer; from tissue; host or cells: mature spring cabbage heads
T1 sequence (P24226 32-469): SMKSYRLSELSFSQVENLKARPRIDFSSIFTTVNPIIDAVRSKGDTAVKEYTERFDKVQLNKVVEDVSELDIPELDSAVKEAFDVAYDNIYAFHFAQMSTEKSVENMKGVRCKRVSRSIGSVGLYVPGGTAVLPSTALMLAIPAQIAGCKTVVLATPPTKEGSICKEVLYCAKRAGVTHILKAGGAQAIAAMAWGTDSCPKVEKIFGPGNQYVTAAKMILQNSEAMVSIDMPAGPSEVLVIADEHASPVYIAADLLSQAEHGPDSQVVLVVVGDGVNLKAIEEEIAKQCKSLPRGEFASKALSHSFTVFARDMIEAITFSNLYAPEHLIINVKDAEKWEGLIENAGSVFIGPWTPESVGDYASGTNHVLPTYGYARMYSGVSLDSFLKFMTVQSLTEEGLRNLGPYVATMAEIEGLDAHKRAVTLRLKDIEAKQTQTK

B1: histidinol dehydrogenase from cabbage (Brassica oleracea var. capitata) (protein)
chain: SMKSYRLSELSFSQVENLKARPRIDFSSIFTTVNPIIDAVRSKGDTAVKEYTERFDKVQLNKVVEDVSELDIPELDSAVKEAFDVAYDNIYAFHFAQMSTEKSVENMKGVRCKRVSRSIGSVGLYVPGGTAVLPSTALMLAIPAQIAGCKTVVLATPPTKEGSICKEVLYCAKRAGVTHILKAGGAQAIAAMAWGTDSCPKVEKIFGPGNQYVTAAKMILQNSEAMVSIDMPAGPSEVLVIADEHASPVYIAADLLSQAEHGPDSQVVLVVVGDGVNLKAIEEEIAKQCKSLPRGEFASKALSHSFTVFARDMIEAITFSNLYAPEHLIINVKDAEKWEGLIENAGSVFIGPWTPESVGDYASGTNHVLPTYGYARMYSGVSLDSFLKFMTVQSLTEEGLRNLGPYVATMAEIEGLDAHKRAVTLRLKDIEAKQTQTK
notes: Spring cabbage heads are homogenized using a kitchen mixer; from tissue; host or cells: mature spring cabbage heads

How the values were obtained:
[1] = target: T1, histidinol dehydrogenase from cabbage; assay: Histidinol dehydrogenase enzyme assay (spectrophotometric, NAD+ reduction at 340 nm); type: biochemical; conditions: for Relative Activity: metal ion 0.5 mM, activity after 3 min reaction time, None = 100
Method: (§1) The enzyme activity is assayed spectrophotometrically by measuring the increase in absorbence at 340 nm due to the reduction of NAD+in a Hitachi U-3120 spectrophotomer. The reaction mixture contained 150 mM Gly/NaOH buffer, pH 9.2, 0.5 mM, MnCl , 2 mM NAD+, 5 mM histidinol, and 2-5 mU of enzyme sample in total volume of 0.5 ml. The reaction is started with the addition of histidinol, and incubated at 30° C. A reference sample containing water instead of histidinol is always run. One unit of enzyme catalyzes the formation of 2 μmol of NADH per min under the assay conditions.
as §1, with “absorbance” for “absorbence”, “spectrophotometer.” for “spectrophotomer.”, “pH9.2,” for “pH 9.2,”, “MnCl2,” for “MnCl ,”, “NAD +,” for “NAD+,”, “catalyzing” for “catalyzes”

[2] = tested on: histidinol dehydrogenase from wheat germ; conditions: cited from earlier work
[3] = tested on: histidinol dehydrogenase from S. typhimurium; conditions: cited from earlier work
[4] = substrate: NC(=O)c1ccc[n+]([C@@H]2O[C@H](COP(=O)([O-])OP(=O)(O)OC[C@H]3O[C@@H](n4cnc5c(N)ncnc54)[C@H](O)[C@@H]3O)[C@@H](O)[C@H]2O)c1; assay: Histidinol dehydrogenase enzyme assay (spectrophotometric, NAD+ reduction at 340 nm); type: biochemical, cabbage (Brassica oleracea); conditions: other: standard assay conditions; pH 9.2; 30.0 °C
Method: as §1
as §1, with “absorbance” for “absorbence”, “spectrophotometer.” for “spectrophotomer.”, “pH9.2,” for “pH 9.2,”, “MnCl2,” for “MnCl ,”, “NAD +,” for “NAD+,”, “catalyzing” for “catalyzes”

[5] = substrate: N[C@H](CO)Cc1c[nH]cn1; assay: purified protein, by the assay type; conditions: other: standard assay conditions; pH 9.2; 30.0 °C
[6] = reaction buffer 150 mM Gly/NaOH, pH9.2

Molecule | Relative Activity [1] [%] | influence of divalent metal ion on the enzyme reaction (in words) [1, 6] | also measured
[Ba+2] [Ba^2+] | 65 | caused inhibition | 
[Ca+2] [Ca^2+] | 36 | caused inhibition | 
[Cu+2] [Cu^2+] | 24 | caused inhibition | 
N[C@H](CO)Cc1c[nH]cn1 [L-histidinol] |  |  | Km ([2]; read-out: Km of the partially purified enzyme from wheat germ for L-histidinol): 8.8 µM; Km ([3]; read-out: Km of the pure enzyme from S. typhimurium for L-histidinol, pure enzyme): 16 µM
[Mg+2] [Mg^2+] | 54 | caused inhibition | 
[Mn+2] [Mn^2+] | 126 | stimulation of the enzyme activity | stimulation of the reaction compared to control without any divalent metal ion [1, 6]: 26%; effect of metal ion on the reaction catalyzed by the S. typhimurium enzyme (in words) [3]: stimulated
NC(=O)c1ccc[n+]([C@@H]2O[C@H](COP(=O)([O-])OP(=O)(O)OC[C@H]3O[C@@H](n4cnc5c(N)ncnc54)[C@H](O)[C@@H]3O)[C@@H](O)[C@H]2O)c1 [NAD+] |  |  | Km ([2]; partially purified enzyme, read-out: Km of the enzyme from wheat germ for NAD+): 140 µM; Km ([3]; read-out: Km of the enzyme from S. typhimurium for NAD+): 1000 µM
[Ni+2] [Ni^2+] | 46 | caused inhibition | 
[Zn+2] [Zn^2+] | 34 | caused inhibition | 
B1 |  |  | Km [4]: 42 µM; Km [5]: 15.5 µM
